Assay results published in US20210253518A1, “KINASE INHIBITOR” (NISSAN CHEMICAL CORPORATION, priority 2018, published 2021).

Legend:
[1] = target: T1, LATS2 (Homo sapiens, UniProt Q9NRM7); test: Kinase Assay method (Fluorospark Kinase/ADP Multi-Assay Kit); assay type: biochemical
T1 construct: purchased Carna Biosciences
T1 sequence (Q9NRM7 553-1088 limits assumed): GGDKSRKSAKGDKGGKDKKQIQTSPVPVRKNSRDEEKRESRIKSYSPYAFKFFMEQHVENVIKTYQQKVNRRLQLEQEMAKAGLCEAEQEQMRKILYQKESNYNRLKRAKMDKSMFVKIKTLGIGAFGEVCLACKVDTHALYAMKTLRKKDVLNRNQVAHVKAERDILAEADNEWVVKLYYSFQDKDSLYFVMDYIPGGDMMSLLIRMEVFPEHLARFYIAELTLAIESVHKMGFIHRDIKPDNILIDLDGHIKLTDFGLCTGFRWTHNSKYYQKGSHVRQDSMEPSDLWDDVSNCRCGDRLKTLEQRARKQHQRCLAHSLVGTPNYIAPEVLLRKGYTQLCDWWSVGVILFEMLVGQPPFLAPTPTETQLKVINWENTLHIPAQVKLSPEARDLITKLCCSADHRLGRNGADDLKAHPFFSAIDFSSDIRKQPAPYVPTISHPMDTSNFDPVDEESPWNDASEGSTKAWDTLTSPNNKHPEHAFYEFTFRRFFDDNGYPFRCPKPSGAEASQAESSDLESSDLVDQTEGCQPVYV
Procedure: (§1) For compound k-1:B-1 (racemate), GA-002A, GA-002B, GA-005A and GA-005B, inhibitory activity evaluation (calculation of IC50) was performed on LATS1 and LATS2 (manufactured by Carna Biosciences). The activity was measured using the Kinase Assay method described below. The compounds were added such that the test concentration of k-1:B-1 (racemate), GA-002A, GA-002B, GA-005A and GA-005B was in 8 steps (10 μM, 1 μM, 100 nM, […], 10 nM, 3 nM, 1 nM, 0.3 nM) from the final concentration of 10 μM to 0.3 nM.
(§2) As the analysis method of the data, the mean signal of the control well containing reaction components other than the evaluation compound was set to 0% inhibition, the mean signal without enzyme addition was set to 100% inhibition, and the inhibition rate was calculated from the mean signal of 2 wells of each test substance test. IC50 value was calculated using EXSUS (version 7.1.6, manufactured by CAC EXICARE Corporation).
(§3) 2 μL of a compound of the present invention solution at 2.5-fold concentration, 1 μL of substrate at 5-fold concentration (SGKtide: NH2—CKKRNRRLSVA-COOH, manufactured by SignalChem), ATP (manufactured by Sigma-Aldrich), MgCl2 (manufactured by FUJIFILM Wako Pure Chemical Corporation) solution (final concentration 10 μM, 400 μM or 5 mM), and 2 μL of kinase solution at 2.5-fold concentration (final concentration of LATS1 or LATS2 5 μg/mL), each prepared with assay buffer (20 mM HEPES, 0.01% Triton X-100, 2 mM DTT, pH 7.5), were mixed in the wells of a polypropylene 384-well plate (manufactured by Greiner Bio-One, #784900) and reacted at room temperature for 5 hr. Successively, 5 μL detection solution (Fluorospark (registered trade mark)Kinase/ADP Multi-Assay Kit; manufactured by FUJIFILM Wako Pure Chemical Corporation) was added, and the mixture was reacted at room temperature 30 min. Successively, 5 μL of a reaction quenching liquid (Fluorospark (registered trade mark) Kinase/ADP Multi-Assay Kit; manufactured by FUJIFILM Wako Pure Chemical Corporation) was added to discontinue the reaction. Thereafter, the ADP concentration of the reaction solution was quantified by EnSpire (manufactured by PerkinElmer) to detect the kinase reaction.

[2] = target: T2, LATS1 (Homo sapiens, UniProt O95835); test: as above; assay type: biochemical
T2 construct: purchased Carna Biosciences
T2 sequence (O95835 589-1130 limits assumed): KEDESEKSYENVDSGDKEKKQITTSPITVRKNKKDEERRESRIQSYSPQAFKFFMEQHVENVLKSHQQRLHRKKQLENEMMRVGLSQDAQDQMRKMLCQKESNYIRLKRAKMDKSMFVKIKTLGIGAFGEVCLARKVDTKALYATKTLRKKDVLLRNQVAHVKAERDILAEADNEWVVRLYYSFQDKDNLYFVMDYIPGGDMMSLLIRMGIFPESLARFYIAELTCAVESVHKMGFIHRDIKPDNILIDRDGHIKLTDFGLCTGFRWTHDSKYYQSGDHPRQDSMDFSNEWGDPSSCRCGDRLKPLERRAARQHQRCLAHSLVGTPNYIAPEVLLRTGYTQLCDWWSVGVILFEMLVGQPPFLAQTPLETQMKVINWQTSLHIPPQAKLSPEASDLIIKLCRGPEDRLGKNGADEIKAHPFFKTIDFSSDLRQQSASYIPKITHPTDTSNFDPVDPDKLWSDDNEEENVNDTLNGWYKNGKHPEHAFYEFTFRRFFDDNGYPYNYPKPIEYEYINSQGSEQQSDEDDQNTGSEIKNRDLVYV
Procedure: as §1, §2, §3

[3] = test system: colitis model administered with dextran sulfate sodium (DSS); test: DSS colitis model mouse, length of the large intestine; assay type: in vivo; conditions: 2.5 w/v % DSS drinking water, 50 mg/kg intraperitoneally every 24 hr, day 8, vs 0.5% MC, FIG. 3
Procedure: Colitis model administered with dextran sulfate sodium (DSS) (manufactured by FUJIFILM Wako Pure Chemical Corporation) was produced as described below. The length of the large intestine is used as a morphological parameter in the evaluation of colitis, and the large intestine shortens according to the degree of inflammation. Therefore, the anti-inflammatory effect of the compound was evaluated by comparing the length of the large intestine.
Compound K-1:J-1 was prepared as a 0.5 w/v % methylcellulose aqueous solution (0.5% MC, manufactured by FUJIFILM Wako Pure Chemical Corporation) at 5 mg/mL and intraperitoneally administered at 50 mg/kg per administration. 0.5% MC was administered to the negative control.
As the mouse, male C57BL/6NCrl, 6-week-old, was purchased from CHARLES RIVER LABORATORIES JAPAN, INC. As drinking water, distilled water or a 2.5 w/v % DSS aqueous solution was freely given. The DSS drinking start date was set as day 1, and the water was given until day 8. Compound K-1:J-1 was intraperitoneally administered at 50 mg/kg every 24 hr from day 1. On day 8, the mouse was dissected, the large intestine was isolated and the length of the large intestine was measured. Conducted in 4 cases in each group.

[4] = Kinase Assay method, 8 steps 10 μM to 0.3 nM

Compound | inhibition at 0.1 µM ([1]; 100 nM, read-out: LARS2 inhibitory rate (%)) [%] | inhibition at 1 µM ([1]; 1000 nM, read-out: LARS2 inhibitory rate (%)) [%] | IC50 [1, 4] [nM] | inhibition at 0.1 µM ([2]; 100 nM, read-out: LARS1 inhibitory rate (%)) [%] | inhibition at 1 µM ([2]; 1000 nM, read-out: LARS1 inhibitory rate (%)) [%] | IC50 [2, 4] [nM] | length of the large intestine [3]
CC/C(=N\NC(=O)C(C)Nc1ccccc1)c1ccc(O)c(C)c1O (stereo not shown) [k-1:B-1] | 75 | 96 | 30.8 | 94 | 102 | 8.88 | 
CC/C(=N\NC(=O)NCc1cccc(O)c1)c1ccc(O)c(C)c1O [k-1:J-1] |  |  |  |  |  |  | shortening of the large intestine was suppressed more
